Here are results for one compound from patent EP2349259B1, “INHIBITORS OF MITOSIS FOR […] IN THERAPY” (Array Biopharma, Inc., priority 2008, dated 2010).

Series [1] can be described thus: Determination of MTD of Compound 4 in mice (HT-29 xenograft study). The conditions noted are these: mouse, in vivo; female nude mice with subcutaneous HT-29 xenografts; compound dissolved in normal saline. As for the experimental part: Female nude mice were implanted subcutaneously with 5 x 10^6 HT-29 cells in 100 µL PBS. Ten days Inter, tumors were measured and mice randomized into groups of three with average tumor volume in each group of approximately 240 mm^3. Compound 4 was dissolved in normal saline immediately before dosing. It was determined that 20 mg/kg was the MTD for Compound 4. Dose volume was 10 mL/kg. Dosing was vehicle alone on day 1; and Compound 4 at 20 mg/kg on day 1; and 20 mg/kg on days 1 and 3. At various time points after dosing (24, 48, 72, 96, 120 and 144 hours), mice were euthanized by CO2 inhalation, and the tumors were harvested and immediately placed in formalin. The vehicle control group samples were collected 24 and 72 hours after dosing. The day I group samples were collected 24, 48, 72 and 96 hours after that dose. The day 1 and day 3 group samples were collected 72, 96, 120 and 144 hours after the first dose. Paraffin blocks of tumor tissue were prepared by standard procedures. […] Spindle structures were manually counted in three 40X areas of each sample, using a fluorescent microscope. Apoptosis was quantitated by manual counting of TUNEL positive cells, also in three 40X areas of each sample (TUNEL staining using the In Situ Cell Death Detection Kit, AP from Roche).

The nature of series [2]: Tolerability in tumor growth inhibition study on different dosing schedules (HT-29). The conditions noted are these: 10 mg/kg IP on days 1, 2, 3, 4 and 5. The series is classed as in vivo, nude mice. As for the experimental part:
Female nude mice were implanted subcutaneously with 5 x 10^6 HT-29 cells in 100 µL PBS. Eleven to fourteen days later, tumors were measured and mice randomized into groups of seven with average tumor volume in each group of approximately 230 mm^3. Compound 4 was dissolved in normal saline immediately prior to dosing, and administered IP at a volume of 10 mL/kg. Dosing was vehicle alone on day 1 and day 2; and Compound 4 at 20 mg/kg on day 1; 20 mg/kg on days I and 2; 20 mg/kg on days 1 and 3; 5 mg/kg on days 1, 2 and 3; 10 mg/kg on days 1, 2 and 3; 10 mg/kg on days 1, 2, 3, 4 and 5; 10 mg/kg on days 1 and 2; and 10 mg/kg on days 1 and 3. Animal weights and tumor volumes were measured (using electronic calipers) twice a week. Tumor volume was calculated using the formula: volume = (width^2 x length)/2. Dosing at 10 mg/kg on days 1, 2, 3, 4 and 5 was not tolerated (greater than 20% weight loss and/or death in some of the mice).

Series [3] in a line: Determination of MTD in a Phase 1 Study. Format: in vivo, human. Conditions: IV on Days 1 and 2 every two weeks. The text has this:
A total of 13 patients with various solid tumors and with a median age of 66 years (range 40-79 years old) were enrolled in a human phase 1 clinical trial (see "Phase 1 Safety and Phamacokinetic Study of ARRY-520 in Solid Tumors." http://clinicaltrials.gov/ct2/show/NCT00462358). The solid tumors treated were breast cancer (2), colorectal cancer (2), non-small cell lung cancer (2), pancreatic cancer (2), bladder cancer, salivary gland cancer (adenoid cystic), esophageal cancer, mesothelioma cancer, and a mixed small cell lung cancer / non-small cell lung cancer. Compound 4 was provided for administration as a lyophilized powder contained in a Type 1 clear glass vial for IV use. The dose levels administered were 1.25 and 1.6 mg/m^2/day of Compound 4 on Days 1 and 2 every two weeks.

On to `CON(C)C(=O)N1N=C(c2cc(F)ccc2F)S[C@@]1(CCCN)c1ccccc1` [Compound 4, (S)-2-(3-aminopropyl)-5-(2,5-difluorophenyl)-N-methoxy-N-methyl-2-phenyl-1,3,4-thiadiazole-3(2H)-carboxamide], for which, in series [1], the MTD turned out to be 20 mg/kg. For the same compound, the “tolerability of dosing schedule” value in series [2] (female nude mice with HT-29 xenografts) is “not tolerated”. The weight loss result in series [2] (weight loss and/or death in some of the mice) was “greater than 20%”. The compound further had an MTD in series [3] (13 patients with various solid tumors, dose levels 1.25 and 1.6 mg/m^2/day) of 1.25 mg/m^2/day. In series [3] (patients with solid tumors), the DLTs result is “Grade 3 hyponatremia, anorexia, AST increase and febrile neutropenia”; the “MTD, cumulative dose per cycle” value was 2.5 mg/m^2.
